Results on 13 molecules are retold here after patent publication US20240018125A1, “CYCLIC ISOTHIOUREA DERIVATIVES AS CXCR4 MODULATORS” (ERMIUM THERAPEUTICS, priority 2020, published 2024).

Structures can show the parent of a compound that is named as a salt. A value given as a limit tells only on which side of the number the result lay.

The assay has as its system peripheral blood mononuclear cells (PBMCs) from healthy donors. In words: IFN production by R848-activated PBMCs, quantified with twINNE luciferase reporter cell line. It is filed as cell-based, human. Particulars: Homo sapiens, PBMC; read-out: IC50 of anti-inflammatory activity (IFN production by activated PBMCs). As for the experimental part:
The blood from healthy donors was obtained from “Etablissement Français du Sang” (convention #19/EFS/029), Paris, France.
In vitro experiments were performed using human peripheral blood mononuclear cells (PBMCs) isolated by density centrifugation from peripheral blood leukocyte separation medium, lymphoprep (Stemcell Technologies).
PBMCs were cultured in RPMI 1640 (Sigma-Aldrich, MO, USA) containing 10% heat-inactivated fetal bovine serum (Sigma-Aldrich, MO, USA) at 37° C./5% CO2.
The PBMCs used herein were prepared as described in part A “immune cells preparation”, above. PBMCs were seeded at 4.10^6/mL. Cells were pre-treated with different concentration of examples according to the invention. Cells were then stimulated with the TLR7/8 agonist resiquimod—R848 (Sigma-Aldrich, MO, USA) at 5 μg/mL.
To quantify the secretion of functional IFN, a biological assay based on a stable cell line where luciferase reporter gene is controlled by five Interferon-Stimulated Response Elements (twINNE cell line) was used. First, supernatants of R848-stimulated PBMCs (see part B above) were harvested after 24 h of stimulation and frozen at −20° C. for storage. Then, supernatants were dispensed in culture wells of a 96-well plate containing 35.103 twINNE cells per well in Dulbecco's Modified Eagle's Medium supplemented with 10% Foetal Bovine Serum, 100 U/mL Penicillin and 100 μg/mL Streptomycin (1% Pen-Strep) and 1 mM glutamine (Sigma-Aldrich, MO, USA) at 37° C./5% CO2. After 24 h of culture, luciferase activity was determined by adding 60 μL of Bright-Glo reagents (Promega, Wisconsin, USA) to culture wells and measuring bioluminescence with EnSpire Multimode Plate Reader (PerkinElmer, Massachusetts, USA). When stated, for IC50 calculation, dose-response curves fitted using the nonlin fit (variable slope) analysis in GraphPad Prism software (GraphPad Software, Califronia, USA).
IFN production was quantified (as specified in Materials and Methods, part C “quantification of interferon secretion”) using twINNE reporter cell line.

Regarding `CC1(C)CN=C(SCC2=CSC3=Nc4cc(Cl)ccc4CN23)N1` [Example 9, 8-chloro-3-(((5,5-dimethyl-4,5-dihydro-1H-imidazol-2-yl)thio)methyl)-5H-thiazolo[2,3-b]quinazoline dihydrochloride], the concentration for half-maximal inhibition (IC50) fell in the range of 10 to 32 µM.
In the case of `Clc1ccc2c(c1)CN=C(SCC1=CSC3=NCCN13)N2` [Example 10, 3-(((6-chloro-1,4-dihydroquinazolin-2-yl)thio)methyl)-5,6-dihydroimidazo[2,1-b]thiazole dihydrochloride] it was no more than 10 µM; in that of `C1=C(CSC2=NCc3ccccc3N2)N2Cc3ccccc3CN=C2S1` [Example 11, 3-(((3,4-dihydroquinazolin-2-yl)thio)methyl)-5,10-dihydrobenzo[e]thiazolo[3,2-a][1,3]diazepine dihydrochloride], no more than 10 µM; in that of `C1=C(CSC2=NCc3ccccc3N2)N2Cc3ccccc3N=C2S1` [Example 12, 3-(((1,4-dihydroquinazolin-2-yl)thio)methyl)-5H-thiazolo[2,3-b]quinazoline dihydrochloride], no more than 10 µM.
On to `Clc1ccc(C2CN3C(CSC4=NCc5ccccc5N4)=CSC3=N2)cc1` (stereo not shown) [Example 14, 6-(4-chlorophenyl)-3-(((3,4-dihydroquinazolin-2-yl)thio)methyl)-5,6-dihydroimidazo[2,1-b]thiazole dihydrochloride], for which the half-inhibitory concentration (IC50) is no more than 10 µM.
In the case of `C1=C(CSC2=NCc3ccccc3N2)N2CC(C3CCCCC3)N=C2S1` (stereo not shown) [Example 15, 6-cyclohexyl-3-(((3,4-dihydroquinazolin-2-yl)thio)methyl)-5,6-dihydroimidazo[2,1-b]thiazole dihydrochloride] it was no more than 10 µM.
Under `Fc1cccc2c1CN1C(CSC3=NCc4ccccc4N3)=CSC1=N2` [Example 18, 3-(((3,4-dihydroquinazolin-2-yl)thio)methyl)-6-fluoro-5H-thiazolo[2,3-b]quinazoline dihydrochloride] stands no more than 10 µM; under `Clc1ccc2c(c1)CN1C(CSC3=NCC(Cc4ccccc4)N3)=CSC1=N2` (stereo not shown) [Example 20, 3-(((5-benzyl-4,5-dihydro-1H-imidazol-2-yl)thio)methyl)-7-chloro-5H-thiazolo[2,3-b]quinazoline dihydrochloride], no more than 10 µM.
Under `CC1(C)N=C(SCC2=CSC3=NCc4ccccc4CN23)Nc2ccccc21` [Example 21, 3-(((4,4-dimethyl-1,4-dihydroquinazolin-2-yl)thio)methyl)-5,10-dihydrobenzo[e]thiazolo[3,2-a][1,3]diazepine dihydrochloride] stands no more than 10 µM.
Take `Clc1ccc(C2CN=C(SCC3=CSC4=NCc5ccccc5CN34)N2)cc1` (stereo not shown) [Example 22, 3-(((4-(4-chlorophenyl)-4,5-dihydro-1H-imidazol-2-yl)thio)methyl)-5,10-dihydrobenzo[e]thiazolo[3,2-a][1,3]diazepine dihydrochloride]: the 50% inhibitory concentration (IC50) is no more than 10 µM.
In the case of `Fc1cccc2c1CN=C(SCC1=CSC3=NCc4ccccc4CN13)N2` [Example 23, 3-(((5-fluoro-1,4-dihydroquinazolin-2-yl)thio)methyl)-5,10-dihydrobenzo[e]thiazolo[3,2-a][1,3]diazepine dihydrochloride] it was no more than 10 µM; in that of `C1=C(CSC2=N[C@@H](c3ccccc3)[C@H](c3ccccc3)N2)N2Cc3ccccc3CN=C2S1` [Example 24, 3-((((4S,5S)-4,5-diphenyl-4,5-dihydro-1H-imidazol-2-yl)thio)methyl)-5,10-dihydrobenzo[e]thiazolo[3,2-a][1,3]diazepine dihydrochloride], no more than 10 µM; in that of `C1=C(CSC2=NCCc3ccccc3N2)N2Cc3ccccc3CN=C2S1` [Example 25, 3-(((4,5-dihydro-1H-benzo[d][1,3]diazepin-2-yl)thio)methyl)-5,10-dihydrobenzo[e]thiazolo[3,2-a][1,3]diazepine dihydrochloride], no more than 10 µM.
